Laboratory results reported in patent US5707985A, “Naphthyl-, quinolyl- and isoquinolyl- sulfonamide derivatives as cell adhesion modulators” (Tanabe Seiyaku Co. Ltd., priority 1995, dated 1998).
Like-named read-outs stand apart in the source and are kept apart here.

B1: soluble ICAM-1: soluble ICAM-1, specific inhibitor of rhinovirus infection (protein, UniProt P05362 28-480, looked up)
extracellular domain: QTSVSPSKVILPRGGSVLVTCSTSCDQPKLLGIETPLPKKELLLPGNNRKVYELSNVQEDSQPMCYSNCPDGQSTAKTFLTVYWTPERVELAPLPSWQPVGKNLTLRCQVEGGAPRANLTVVLLRGEKELKREPAVGEPAEVTTTVLVRRDHHGANFSCRTELDLRPQGLELFENTSAPYQLQTFVLPATPPQLVSPRVLEVDTQGTVVCSLDGLFPVSEAQVHLALGDQRLNPTVTYGNDSFSAKASVSVTAEDEGTQRLTCAVILGNQSQETLQTVTIYSFPAPNVILTKPEVSEGTEVTVKCEAHPRAKVTLNGVPAQPLGPRAQLLLKATPEDNGRSFSCSATLEVAGQLIHKNQTRELRVLYGPRLDERDCPGNWTWPENSQQTPMCQAWGNPLPELKCLKDGTFPLPIGESVTVTRDLEGTYLCRARSTQGEVTRKVTVNVLSPRYE
modifications: extracellular domain

Tests used:
[1] = target: T1, interaction between ICAM-1 and LFA-1 (Homo sapiens, UniProt P05107+P20701); assay: Adhesion of JY cells to TNF-α stimulated human endothelial cells (JY-EC); format: cell-based; settings: for IC50: JY cells on TNF-α stimulated human endothelial cells, 30 minutes at 37° C., read-out: JY-EC IC50 (concentration at which adhesion is inhibited to 50% of control level)
T1 construct: endogenous in cells; host or cells: JY (human B cell line) for LFA-1; TNF-alpha stimulated HUVEC (Clonetics) for ICAM-1
T1 sequence (P20701 26-1170): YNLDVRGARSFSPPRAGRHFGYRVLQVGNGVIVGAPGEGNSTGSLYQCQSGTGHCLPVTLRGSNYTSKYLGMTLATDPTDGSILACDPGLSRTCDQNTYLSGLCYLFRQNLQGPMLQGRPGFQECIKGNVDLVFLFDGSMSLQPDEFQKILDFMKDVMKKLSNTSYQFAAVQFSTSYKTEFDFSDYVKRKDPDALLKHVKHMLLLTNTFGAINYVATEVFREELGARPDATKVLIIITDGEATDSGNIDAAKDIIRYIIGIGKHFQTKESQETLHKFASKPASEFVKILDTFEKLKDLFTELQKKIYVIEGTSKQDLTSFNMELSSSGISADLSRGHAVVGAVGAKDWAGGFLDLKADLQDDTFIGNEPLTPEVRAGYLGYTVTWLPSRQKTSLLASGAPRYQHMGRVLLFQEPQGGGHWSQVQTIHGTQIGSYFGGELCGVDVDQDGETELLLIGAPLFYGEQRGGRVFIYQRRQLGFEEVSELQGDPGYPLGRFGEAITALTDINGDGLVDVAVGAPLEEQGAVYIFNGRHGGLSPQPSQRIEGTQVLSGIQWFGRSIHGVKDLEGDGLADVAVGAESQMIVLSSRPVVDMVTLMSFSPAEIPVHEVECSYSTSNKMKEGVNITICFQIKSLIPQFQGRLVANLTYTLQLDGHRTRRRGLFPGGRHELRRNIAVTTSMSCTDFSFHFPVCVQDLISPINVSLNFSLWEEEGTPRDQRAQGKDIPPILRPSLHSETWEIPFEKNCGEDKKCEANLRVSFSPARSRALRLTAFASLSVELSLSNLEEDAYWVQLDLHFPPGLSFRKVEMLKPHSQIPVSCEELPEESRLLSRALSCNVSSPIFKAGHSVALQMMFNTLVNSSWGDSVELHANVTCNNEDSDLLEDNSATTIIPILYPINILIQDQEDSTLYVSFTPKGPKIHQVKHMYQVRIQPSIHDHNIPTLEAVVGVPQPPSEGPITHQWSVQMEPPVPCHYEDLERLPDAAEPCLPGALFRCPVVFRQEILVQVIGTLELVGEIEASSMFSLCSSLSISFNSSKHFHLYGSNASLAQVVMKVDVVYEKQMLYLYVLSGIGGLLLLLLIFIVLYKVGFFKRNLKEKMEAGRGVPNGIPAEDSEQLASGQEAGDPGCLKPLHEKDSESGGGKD
T1 sequence (P05107 23-769): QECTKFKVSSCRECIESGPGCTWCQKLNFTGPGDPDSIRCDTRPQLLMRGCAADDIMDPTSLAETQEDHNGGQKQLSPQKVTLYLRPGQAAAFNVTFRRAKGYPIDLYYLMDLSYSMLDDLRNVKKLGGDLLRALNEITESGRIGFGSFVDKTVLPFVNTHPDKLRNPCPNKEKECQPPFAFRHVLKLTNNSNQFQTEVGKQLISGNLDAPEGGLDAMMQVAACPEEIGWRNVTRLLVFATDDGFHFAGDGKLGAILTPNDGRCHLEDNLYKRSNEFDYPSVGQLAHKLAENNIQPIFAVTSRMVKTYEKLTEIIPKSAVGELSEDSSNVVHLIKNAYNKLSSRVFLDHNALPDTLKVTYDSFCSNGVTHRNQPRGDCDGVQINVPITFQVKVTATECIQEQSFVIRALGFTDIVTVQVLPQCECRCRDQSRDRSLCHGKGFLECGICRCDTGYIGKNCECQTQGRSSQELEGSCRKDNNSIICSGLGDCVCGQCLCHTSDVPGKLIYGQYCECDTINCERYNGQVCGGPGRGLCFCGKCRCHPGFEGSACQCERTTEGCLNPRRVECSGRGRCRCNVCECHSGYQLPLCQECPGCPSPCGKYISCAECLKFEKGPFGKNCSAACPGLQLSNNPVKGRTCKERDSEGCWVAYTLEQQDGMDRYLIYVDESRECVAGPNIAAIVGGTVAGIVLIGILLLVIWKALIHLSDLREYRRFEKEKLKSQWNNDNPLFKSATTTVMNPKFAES
Excerpt: In order to establish the pharmacological properties of the compounds of formula (I) as a method of treatment for immuno-inflammatory disease in a patient suffering therefrom--such diseases being for the most part, but not limited exclusively to, graft rejection, ischemia reperfusion, asthma/allergy, delayed type hypersensitivity and AIDS--an in vitro assay was used to determine the effect of the compounds of the present invention on β2 mediated adhesion. Because human endothelial cells (EC's) express low levels of ICAM-1 on their surface and stimulation with TNF-α increases its expression, adhesion of lymphocytes can be measured following the principal assay design as described below for the human B cell line JY.
A. Cell Adhesion to Stimulated Endothelial Cells
Human umbilical vein endothelial cells (HUVEC) were purchased from Clonetics (San Diego, Calif.) at passage number 2. The cells were growth on 0.5% porcine skin gelatin pre-coated flasks (Sigma, St. Louis, Mo.) in EGM-UV media (Clonetics, San Diego, Calif.) supplemented with 10% fetal bovine serum. Cells are re-fed every 2-3 days, reaching confluence by day 4 to 6. […] The endothelial cells are not used following passage 7. Endothelial cells are grown to confluency in 96-well micro-titer assay plate.
The human B cell line JY was cultured in RPMI media containing 10% fetal calf serum at 37° C. in a humidified CO2 atmosphere. JY cells are loaded with the fluorescent dye indicator BCECF as follows: JY cells are washed twice with HBSS and cells are then re-suspended in HBSS at 5×10^6 cells/ml; BCECF-AM (Molecular Probes), stock concentration=1 mg/ml in DMSO, is added to the JY cells to a final concentration of 2 μg/ml; cells are incubated in the dark at 37° C. for 30-45 minutes; washed twice with HBSS and used in the assay.
The compounds presented in this invention are typically dissolved in 2.5 mg HSA/ml DME at four times the assay concentration and pH adjusted with 7.5% Na bicarbonate as needed. A confluent monolayer of human EC's in microtiter plates is stimulated with 50 U/ml TNF-α for 20 hours, and on the next day washed twice with DMEM-HSA before use. The EC's may be fixed by treatment with 3% paraformaldehyde. The assay plate is placed on ice, and test compound is added to quadruplicate wells, then all wells received 2.5×10^5 labeled JY cells and an optional stimulus (e.g. phorbol ester). Plates are incubated for 30 minutes at 37° C. in a CO2 incubator. Plates are washed four times with 100 μl PBS/well and the fluorescence of the adherent cells is measured using a fluorescence reader. Fluorescence in each well is measured as Arbitrary Fluorescence Units and percent adhesion in the absence of peptide is adjusted to 100% and the percent adhesion in the presence of peptides is calculated. Inhibitory concentrations (IC50) are determined based on 100% adhesion of cells that were incubated in the absence of drugs. Stimulation of protein kinase C by phorbol esters such as […] (PMA) increases the observed adhesion approximately 5-fold. This PMA induced adhesion is 100% blocked by anti-LFA-1 or anti-CD18 antibodies and about 75-80% by anti-ICAM-1 antibodies, while it is unaffected by antibodies to Mac-1, α4 or control antibodies. Thus, this assay measures preferentially the interaction between ICAM-1 and LFA-1.

U937 cells = format: cell-based
Excerpt: (§1) The activity in the assay was not due to cytotoxic activity of the compounds.

JY cells = assay: Proliferation of JY cells (cytotoxicity evaluation); format: cell-based, human
Excerpt: as §1

rhinovirus = settings: Martin, S. D. et al.; cited from earlier work

Molecule | IC50 [1] | also measured
O=S(=O)(c1ccc2c(Cl)cccc2c1)N1CC2CC1CO2 (stereo not drawn) [Example 21, 5-(5-Chloro-2-naphthylsulfonyl)-2-oxa-5-azabicyclo-[2.2.1]heptane] | 86 µM | –
O=S(=O)(NC12CC3CC(CC(C3)C1)C2)c1ccc2ncccc2c1 [Example 30, 1-(6-Quinolinesulfonyl)-1-aminoadamantane] | 23 µM | –
O=S(=O)(c1ccc2c(Cl)cccc2c1)N1CC2CC3CC(C2)CC1C3 [Example 18, 4-(5-Chloro-2-naphthylsulfonyl)-4-azahomoadamantane] | 0.25 µM | –
O=C(O)C12CC3CC(CC(NS(=O)(=O)c4ccc5c(Cl)cccc5c4)(C3)C1)C2 [Example 24, 1-(5-Chloro-2-naphthylsulfonyl)-1-amino-3-adamantane-carboxylic acid] | 136 µM | –
O=S(=O)(c1cc(OCc2cccnc2)c2ccccc2c1)N1CC2CCC(CC2)C1 [Example 54, 3-[1-(3-Pyridinylmethoxy)-3-naphthylsulfonyl]-3-azabicyclo[3.2.2]nonane] | 4.4 µM | –
Nc1cccc2cc(S(=O)(=O)N3CC4CCC(CC4)C3)ccc12 [Example 35, 3-(5-Amino-2-naphthylsulfonyl)-3-azabicyclo[3.2.2]nonane] | 13.6 µM | –
COc1ccc(S(=O)(=O)N2CC3CCC(CC3)C2)c2ccccc12 [Example 44, 3-(4-Methoxy-1-naphthylsulfonyl)-3-azabicyclo[3.2.2]nonane] | 1.6 µM | –
O=S(=O)(c1cc(OCc2cccnc2)c2ccccc2c1)N1CC2CC3CC(C2)CC1C3 [Example 55, 4-[1-(3-Pyridinylmethoxy)-3-naphthylsulfonyl]-4-azahomoadamantane] | 2.1 µM | –
O=S(=O)(c1ccc2ncccc2c1)N1CC2CC3CC(C2)CC1C3 [Example 31, 4-(6-Quinolinesulfonyl)-4-azahomoadamantane] | 5 µM | –
O=S(=O)(c1ccc2c(Cl)cccc2c1)N1CC2CCC(C2)C1 [Example 17, 3-(5-Chloro-2-naphthylsulfonyl)-3-azabicyclo[3.2.1]-octane] | 15 µM | –
O=S(=O)(c1ccc2c(Cl)cccc2c1)N1CC2CCC(CC2)C1 [Example 5, 3-(5-Chloro-2-naphthylsulfonyl)-3-azabicyclo[3.2.2]nonane] | 0.5 µM | inhibition of proliferation of U937 cells (U937 cells): did not inhibit the proliferation of JY cells or U937 cells; inhibition of proliferation of JY cells (JY cells): did not inhibit the proliferation of JY cells
O=S(=O)(NC12CC3CC(CC(C3)C1)C2)c1ccc2c(Cl)cccc2c1 [Example 3, 1-(5-Chloro-2-naphthylsulfonyl)-1-aminoadamantane] | 3 µM | inhibition of proliferation of U937 cells (U937 cells): did not inhibit the proliferation of JY cells or U937 cells; inhibition of proliferation of JY cells (JY cells; at concentrations active in the adhesion assay, measured after 20 hours): did not inhibit the proliferation of JY cells
O=S(=O)(c1ccc2ncccc2c1)N1CC2CCC(CC2)C1 [Example 29, 3-(6-Quinolinesulfonyl)-3-azabicyclo[3.2.2]nonane] | 8 µM | –
CCCCCCCCCCCCCC(=O)O[C@@H]1[C@@H](C)[C@@]2(O)[C@@H](C=C(CO)C[C@]3(O)C(=O)C(C)=C[C@@H]23)[C@@H]2C(C)(C)[C@]12OC(C)=O [13,14-phorbol myristate acetate (PMA), 13,14-phorbol myristate acetate, reference compound] | – | increase of observed adhesion ([1]; stimulation of protein kinase C by PMA): approximately 5 fold
O=S(=O)(c1ccc2c(Cl)cccc2c1)N1CC2CC1CS2 (stereo not drawn) [Example 20, 5-(5-Chloro-2-naphthylsulfonyl-2-thia-5-azabicyclo-2.2.1]heptane] | 6 µM | –
CC(=O)Oc1cccc2cc(S(=O)(=O)NC34CC5CC(CC(C5)C3)C4)ccc12 [Example 15, 1-(5-Acetoxy-2-naphthylsulfonyl)-1-aminoadamantane] | 56 µM | –
B1 | – | inhibition of rhinovirus infection (rhinovirus): act as specific inhibitor of rhinovirus infection
